Assay results taken from patent EP4759814A1, “TRICYCLIC COMPOUND AND USE THEREOF AS MAT2A INHIBITOR” (SK Biopharmaceuticals Co., Ltd., priority 2023, dated 2025).

How the values were obtained:
[1] = Phase 1 clinical trials; cited from earlier work
MAT2A = molecular target: T1, MAT2A (Homo sapiens, UniProt P31153); experiment: MAT2A inhibitory activity, colorimetric phosphate detection (PiColorLock) enzyme assay; format: biochemical; settings: Test Condition 1 or 2 (not stated which per compound); absorbance at 630 nm
T1 construct: purchased BPS Bioscience (USA) 71401
Method in brief: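 Compound preincubated 30 min at room temperature with enzyme, then reacted 1 h with ATP and Met; phosphate read colorimetrically at 630 nm. Condition 1: top 50 µM, 12 ng/µL enzyme, 100 µM ATP, 80 µM Met. Condition 2: top 1 µM, 4 ng/µL enzyme, 300 µM ATP, 150 µM Met. Tris pH 8.0 buffer; IC50 by 4-parameter fit.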

[2] = tested on: HCT116 (MTAP del) cell line; experiment: Cell proliferation inhibition in MTAP-deficient cancer cells, WST-1 assay; format: cell-based; settings: Homo sapiens, HCT-116, 120 hours of drug treatment, maximum concentration 10 µM, read-out: HCT116 MTAP^-/- (IC50, cell proliferation inhibited by 50%)
Method in brief: (§1)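 HCT116 MTAP-deleted and isogenic MTAP wild-type cells (1,000 cells/well, 10% FBS RPMI1640) attached 24 h, then treated with 4-fold dilutions from 10 µM for 120 hours. WST-1 added 2 hours, absorbance at 450 nm, normalized to DMSO control as 100%; IC50 from 4-parameter dose-response fit.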

[3] = tested on: HCT116 (MTAP WT) cell line; experiment: Cell proliferation inhibition in wild-type control cells, WST-1 assay; format: cell-based; settings: Homo sapiens, HCT-116, 120 hours of drug treatment, maximum concentration 10 µM, read-out: HCT116 WT (IC50, cell proliferation inhibited by 50%)
Method in brief: as §1

T1 sequence (P31153 whole entry): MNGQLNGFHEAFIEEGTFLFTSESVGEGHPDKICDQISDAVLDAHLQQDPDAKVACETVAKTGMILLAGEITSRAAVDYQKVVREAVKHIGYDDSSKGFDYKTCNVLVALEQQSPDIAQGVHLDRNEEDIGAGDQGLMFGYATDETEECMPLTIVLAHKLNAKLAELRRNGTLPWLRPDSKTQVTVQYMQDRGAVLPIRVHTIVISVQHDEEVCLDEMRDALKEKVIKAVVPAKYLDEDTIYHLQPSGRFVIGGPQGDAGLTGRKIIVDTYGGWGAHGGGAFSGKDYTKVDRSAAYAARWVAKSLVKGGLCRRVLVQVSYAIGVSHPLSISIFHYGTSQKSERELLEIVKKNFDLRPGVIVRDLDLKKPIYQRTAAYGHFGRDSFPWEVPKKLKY

Compound	IC50 (MAT2A) [nM]	IC50 [2] [nM]	IC50 [3] [nM]	hepatotoxicity [1]
COc1ccc(-c2c(Nc3ccccn3)[nH]c3c(C4=CCCCC4)c(-c4ccccc4)nn3c2=O)cc1 [AG-270]				hepatotoxicity associated with inhibition of UGT1A1
Cc1ncccc1-n1c(=O)c2nccn2c2c(OCC3CC3)cc(Cl)cc21 [Example 103, 7-chloro-9-(cyclopropylmethoxy)-5-(2-methylpyridin-3-yl)imidazo[1,2-a]quinoxalin-4(5H)-one]	1 to 100	1 to 100	> 10000	
COc1ncccc1-n1c(=O)c2nccn2c2cc(Cl)c(Br)cc21 [Example 107, 7-bromo-8-chloro-5-(2-methoxypyridin-3-yl)imidazo[1,2-a]quinoxalin-4(5H)-one]	1 to 100	> 10000	> 10000	
O=c1c2nccn2c2cc(Cl)c(Br)cc2n1-c1cccc2ncsc12 [Example 108, 5-(benzo[d]thiazol-7-yl)-7-bromo-8-chloroimidazo[1,2-a]quinoxalin-4(5H)-one]	1 to 100	100 to 1000	1000 to 10000	
O=c1c2nccn2c2cc(Cl)c(Br)cc2n1-c1cccc2[nH]ccc12 [Example 109, 7-bromo-8-chloro-5-(1H-indol-4-yl)imidazo[1,2-a]quinoxalin-4(5H)-one]	1 to 100	100 to 1000	> 10000	
CCc1ncccc1-n1c(=O)c2nccn2c2cc(Cl)c(C(F)(F)F)cc21 [Example 110, 8-chloro-5-(2-ethylpyridin-3-yl)-7-(trifluoromethyl)imidazo[1,2-a]quinoxalin-4(5H)-one]	1 to 100	> 10000	> 10000	

Now from value to compound, other results behind:

IC50 (MAT2A) [nM]	IC50 [2] [nM]	IC50 [3] [nM]	Compound	hepatotoxicity [1]
1 to 100	1 to 100	> 10000	Cc1ncccc1-n1c(=O)c2nccn2c2c(F)cc(Cl)cc21 [Example 101, 7-chloro-9-fluoro-5-(2-methylpyridin-3-yl)imidazo[1,2-a]quinoxalin-4(5H)-one]	
1 to 100	1 to 100	> 10000	COc1cc(Cl)cc2c1n1ccnc1c(=O)n2-c1cccnc1C [Example 102, 7-chloro-9-methoxy-5-(2-methylpyridin-3-yl)imidazo[1,2-a]quinoxalin-4(5H)-one]	
1 to 100	1 to 100	> 10000	CNc1cc(Cl)cc2c1n1ccnc1c(=O)n2-c1cccnc1C [Example 105, 7-chloro-9-(methylamino)-5-(2-methylpyridin-3-yl)imidazo[1,2-a]quinoxalin-4(5H)-one]	
1 to 100	1 to 100	> 10000	COc1cc(C(F)(F)F)cc2c1n1ccnc1c(=O)n2-c1cccnc1C [Example 113, 9-methoxy-5-(2-methylpyridin-3-yl)-7-(trifluoromethyl)imidazo[1,2-a]quinoxalin-4(5H)-one]	
